Laboratory results from patent US8680111B2 (Pfizer Inc., priority 2012, dated 2014).
pIC50, pKi: −log10 of the molar value. Like-named read-outs stand apart in the source and are kept apart here.

Legend:
[1] = cc_pd bond, 12-membered ring, Pd(OAc)2/cataCXium A/KOAc, 120.0 °C
[2] = cc_pd bond, tert-amyl alcohol, 120.0 °C
[3] = biological target: T1, human recombinant wild-type ALK kinase domain (amino acids 1093-1411) (Homo sapiens, UniProt Q9UM73); test: Wild-type ALK enzyme assay (microfluidic mobility shift); type: biochemical; details: ATP 60 μM, competitive inhibition fit, read-out: WT ALK enzyme assay (Ki)
T1 construct: ALK kinase domain (amino acids 1093-1411); made in house
Protocol: The reactions were incubated for 1 h at room temperature, stopped by the addition of 0.1 M EDTA, pH 8, and the extent of reactions (˜15-20% conversion with no inhibitor) was determined after electrophoretic separation of the fluorescently labeled peptide substrate and phosphorylated product on an LabChip EZ Reader II (Caliper Life Sciences, Hopkinton, Mass.).

[4] = biological target: T2, human recombinant L1196M ALK kinase domain (amino acids 1093-1411) (Homo sapiens, UniProt Q9UM73, L1196M); test: L1196M mutant ALK enzyme assay (microfluidic mobility shift); type: biochemical; details: ATP 60 μM, 0.5 nM enzyme, competitive inhibition fit; read-out: L1196M ALK enzyme assay (Ki)
T2 construct: ALK kinase domain (amino acids 1093-1411); made in house

[5] = biological target: T3, WT EML4-ALK (NIH-3T3 EML4-ALK wt v1 cells) (Homo sapiens, UniProt Q9UM73); test: Cellular phospho-ALK (Tyr1604) ELISA assay for WT EML4-ALK; type: cell-based; details: 1 hour, read-out: ELISA assay for WT EML4-ALK (IC50)
T3 construct: expressed in transfected cells; the other entry of the earlier key: EML4 (Q9HC35, Echinoderm microtubule-associated protein-like 4)
Protocol: Cellular Phospho-ALK (Tyr1604) ELISA Assay for EML4-ALK:
The cells were maintained at 37° C. in a 5% CO2 incubator in DMEM (Invitrogen, Carlsbad, Calif.) medium supplemented with 1% L-glutamine, 1% penicillin and streptomycin, 1 ug/ml puromycin and 10% new born calf serum (NCS) in T-75 flasks.
Cells were washed with PBS and re-suspended in DMEM medium supplemented with 0.5% NCS and 1% pen/strep and seeded into 96-well plates at density of 20,000 cells/well/100 μl and incubated in the incubator at 37° C. and 5% CO2. After 20 hours of incubation, 100 μl of assay media (DMEM) in presence of designated PF-compounds concentrations or controls (DMSO) were added into plates and incubated for 1 hour in the incubator. Media was then removed and lysis buffer, containing phosphatase inhibitors and phenylmethanesulfonyl fluoride (PMSF), was added to wells and shaken at 4° C. for 30 minutes to generate protein lysates.
A phospho-ALK (Tyr1604) rabbit antibody was coated onto the 96-well microplates. 50 μl of cell lysates were added to the antibody coated plate and incubated at room temperature for 2 hours. Following extensive washing with 0.1% Tween 20 in PBS to remove unbound materials, ALK mouse mAb was added to detect captured phospho-ALK (Tyr1604) and phospho-ALK fusion proteins. Anti-mouse IgG, HRP-linked antibody was then used to recognize the bound detection antibody. Finally, the chemiluminescent reagent was added and incubated for 10 minutes for signal development. The assay plates were read in the Envision plate reader in the luminescent mode. IC50 values were calculated by a concentration-response curve fitting using a four-parameter analytic method.

[6] = biological target: T4, L1196M EML4-ALK (NIH-3T3 EML4-ALK v1 L1196M cells) (Homo sapiens, UniProt Q9UM73, L1196M); test: Cellular phospho-ALK (Tyr1604) ELISA assay for L1196M EML4-ALK; type: cell-based; details: NIH-3T3 EML4-ALK v1 L1196M cells, 1 hour, phospho-ALK (Tyr1604); read-out: ELISA assay for L1196M EML4-ALK (IC50)
T4 construct: expressed in transfected cells; the other entry of the earlier key: EML4 (Q9HC35, Echinoderm microtubule-associated protein-like 4)

[7] = cc_pd bond, 12-membered ring, Pd(OAc)2/cataCXium A/KOAc, t-AmOH, 120.0 °C
[8] = cc_pd bond, 12-membered ring, Pd(OAc)2/cataCXium A/KOAc, 120.0 °C; remark: listed apart in the source

pKi [3]	pKi [4]	pIC50 [5]	pIC50 [6]	Structure (SMILES)	ring closure, yield after HPLC ([1]; from C[C@@H](Oc1nc(Br)cnc1N)c1ccccc1C(=O)N(C)Cc1cc(C#N)n(C)n1, t-amyl alcohol, 48.7 mM) [%]	ring closure, yield of all isomers ([2]; from C[C@@H](Oc1nc(Br)cnc1N)c1ccccc1C(=O)N(C)Cc1cc(C#N)n(C)n1, Pd(OAc)2/cataCXium A, KOAc, 48.7 mM, 3.0 h) [%]	ring closure, conversion ([7]; 21.0 mM) [%]	ring closure, yield after HPLC ([1]; t-AmOH, 21.0 mM) [%]	ring closure, isolated yield ([8]; t-AmOH, 17.9 mM) [%]	ring closure, conversion ([7]; 17.9 mM) [%]	ring closure, isolated yield ([8]; t-amyl alcohol, 50.0 mM) [%]	ring closure, yield of all isomers ([2]; from C[C@@H](Oc1nc(Br)cnc1N)c1cc(F)cc(F)c1C(=O)N(C)Cc1cc(C#N)n(C)n1, Pd(OAc)2/cataCXium A/KOAc, 50.0 mM, 2.0 h) [%]
> 9.80	9.02	8.19	7.10	C[C@H]1Oc2nc(cnc2N)-c2c(nn(C)c2C#N)CN(C)C(=O)c2ccccc21 [Example 70, (10R)-7-amino-2,10,16-trimethyl-15-oxo-10,15,16,17-tetrahydro-2H-8,4-(azeno)pyrazolo[4,3-h][2,5,11]benzoxadiazacyclotetradecine-3-carbonitrile]	32	32						
8.49	7.93	7.28	6.27	C[C@H]1Oc2nc(cnc2N)-c2c(noc2C#N)CN(C)C(=O)c2ccc(F)cc21 [Example 99, (10R)-7-amino-12-fluoro-10,16-dimethyl-15-oxo-10,15,16,17-tetrahydro-8,4-(azeno)[1,2]oxazolo[4,3-h][2,5,11]benzoxadiazacyclotetradecine-3-carbonitrile]			30	9				
8.51	7.62	6.83	5.83	C[C@H]1Oc2cc(cnc2N)-c2c(noc2C#N)CN(C)C(=O)c2ccc(F)cc21 [Example 100, (10R)-7-amino-12-fluoro-10,16-dimethyl-15-oxo-10,15,16,17-tetrahydro-8,4-(metheno)[1,2]oxazolo[4,3-h][2,5,11]benzoxadiazacyclotetradecine-3-carbonitrile]					15	30		
9.92	9.39	9.04	8.06	C[C@H]1Oc2nc(cnc2N)-c2c(nn(C)c2C#N)CN(C)C(=O)c2c(F)cc(F)cc21 [Example 101, (10R)-7-amino-12,14-difluoro-2,10,16-trimethyl-15-oxo-10,15,16,17-tetrahydro-2H-8,4-(azeno)pyrazolo[4,3-h][2,5,11]benzoxadiazacyclotetradecine-3-carbonitrile]							53	53
